Results as given in patent US20250092039A1, “GLUTARIMIDE-CONTAINING PAN-KRAS-MUTANT DEGRADER COMPOUNDS AND USES THEREOF” (Tiger Biotherapeutics Inc., priority 2022, published 2025).

Columns and labels:
KRAS-G12V/RAF1 = KRAS-G12V/RAF1 (Homo sapiens (Human), UniProt P01116, G12V); experiment: KRAS/RAF1 binding inhibition assay (AlphaScreen)
Procedure, shortened: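 Binding of GppNHp-loaded KRAS G12V to the RAF1 RBD was measured by AlphaScreen with test compound present in 2% DMSO (final), 60 min incubation at 4° C. Signals were converted to % inhibition versus DMSO, and IC50 was obtained by variable-slope nonlinear regression.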

KRAS G12V = KRAS G12V (Homo sapiens (Human), UniProt P01116, G12V); experiment: KRAS G12V degradation in SW620 cells (Western blot, DC50); assay type: cell-based; settings: 24 hours
KRAS G12V, sequence (P01116-2 other isoform, or with tags, fused parts or gaps G12V): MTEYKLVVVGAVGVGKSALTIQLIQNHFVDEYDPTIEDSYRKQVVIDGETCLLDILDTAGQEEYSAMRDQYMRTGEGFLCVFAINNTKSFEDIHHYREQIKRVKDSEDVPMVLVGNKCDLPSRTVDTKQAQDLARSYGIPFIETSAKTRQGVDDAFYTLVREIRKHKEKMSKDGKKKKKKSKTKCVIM
Procedure, shortened: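 SW620 cells (homozygous KRAS G12V) were treated with compound for 24 hours at 37° C. KRAS in lysates was measured by Western blot with fluorescent secondary antibodies and expressed relative to DMSO vehicle (100%). DC50 came from a four-parameter variable-slope dose-response fit.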

SW620 cells = experiment: 3D cell growth inhibition of SW620 cells carrying endogenous KRAS G12V mutation (CellTiter-Glo 3D, GI50); assay type: cell-based; settings: Homo sapiens, SW-620, 144 h; SW620 cells, 6 days; read-out: SW620 3D cell growth GI50
Procedure, shortened: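 SW620 cells (endogenous KRAS G12V) grown in 3D were dosed next day with compound from DMSO stocks at various concentrations, then incubated 6 days at 37° C.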

[1] = Pharmacokinetics following single intravenous and oral gavage dosing (AUC0-24h); assay type: in vivo; settings: mouse, plasma, male CD-1 mice
Procedure, shortened: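 Male CD-1 mice (3 per route) given a single iv (5 mL/kg) or oral gavage (10 mL/kg) dose in 10% DMSO/30% PEG400/60% aqueous 20% hydroxypropyl-β-cyclodextrin. Plasma sampled to 24 h and measured by LC/MS/MS. PK parameters derived by non-compartmental analysis.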

KRAS-G12V/RAF1, sequence (P01116-2 other isoform, or with tags, fused parts or gaps G12V): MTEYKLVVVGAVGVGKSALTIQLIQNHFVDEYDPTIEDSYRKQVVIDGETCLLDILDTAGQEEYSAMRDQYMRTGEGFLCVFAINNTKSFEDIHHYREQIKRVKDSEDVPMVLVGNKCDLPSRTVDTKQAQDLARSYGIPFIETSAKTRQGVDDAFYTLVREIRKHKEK

AUC(0-t) ([1]; single oral dose 25 mg/Kg) [ng·h/mL]	SMILES	IC50 (KRAS-G12V/RAF1) [nM]	DC50 (KRAS G12V) [nM]	GI50 (SW620 cells) [nM]	AUC(0-t) ([1]; single oral dose 50 mg/Kg) [ng·h/mL]
	CCc1c(F)ccc2cc(O)cc(-c3ncc4c(N5CCC[C@@](C)(O)C5)nc(OCC5(CN6CCC7(CCC(N8CCN(c9ccc%10c(c9)CN([C@H]9CCC(=O)NC9=O)C%10=O)CC8)CC7)CC6)CC5)nc4c3F)c12 [Compound 120, (S)-3-(5-(4-(3-((1-(((7-(8-ethyl-7-fluoro-3-hydroxynaphthalen-1-yl)-8-fluoro-4-((R)-3-hydroxy-3-methylpiperidin-1-yl)pyrido[4,3-d]pyrimidin-2-yl)oxy)methyl)cyclopropyl)methyl)-3-azaspiro[5.5]undecan-9-yl)piperazin-1-yl)-1-oxoisoindolin-2-yl)piperidine-2,6-dione]	< 20	1 to 10	< 10	255
525	CCc1c(F)ccc2cc(O)cc(-c3ncc4c(N5CCC[C@@](C)(O)C5)nc(OCC5(CN6CCC(CN7CCN(c8ccc9c(c8)CN([C@H]8CCC(=O)NC8=O)C9=O)CC7)(OC)CC6)CC5)nc4c3F)c12 [Compound 25, (S)-3-(5-(4-((1-((1-(((7-(8-ethyl-7-fluoro-3-hydroxynaphthalen-1-yl)-8-fluoro-4-((R)-3-hydroxy-3-methylpiperidin-1-yl)pyrido[4,3-d]pyrimidin-2-yl)oxy)methyl)cyclopropyl)methyl)-4-methoxypiperidin-4-yl)methyl)piperazin-1-yl)-1-oxoisoindolin-2-yl)piperidine-2,6-dione]	< 20	< 1	< 10	
